{"source": "patent US9012182B2", "about": "“Method for producing purine nucleosides and nucleotides by fermentation using bacterium belonging to the genus Bacillus or Escherichia” (Ajinomoto Co., Inc., priority 2004, dated 2015); on Growth on the minimal medium containing AzaA, 300 μg/ml: key: +: good growth; −: no growth; on Growth on the minimal medium containing DAP, 400 μg/ml: key: +: good growth; −: no growth; on Growth on the minimal medium containing MP, 400 μg/ml: key: +: good growth; −: no growth", "assay_type_in_all_cases": "cell-based", "key": {"B. subtilis 168": {"system": "B. subtilis 168", "test": "Growth on M9 glucose minimal agar with purine analogues, control strain", "settings": "48 h at 34° C.", "procedure": "(§1) The pYDHL3, pYDHL4 plasmids and the pMWMX1 vector were used to transform wild-type B. subtilis strain 168 via standard techniques. Transformants were selected on L-broth agar plates with 10 μg/ml erythromycin. Thus, the strains B. subtilis 168(pMWMX1), B. subtilis 168(pYDHL3) and B. subtilis 168(pYDHL4) were obtained. Then, the ability of these strains to grow in the presence of purine base analogues was determined on M9 glucose minimal agar plates (minimal medium M9, glucose-2%, vitamin assay casamino acids (Difco)—0.1%, tryptophan—100 μg/ml) containing graded concentrations of a purine analogue. The plates were spotted with 10^5 to 10^6 cells from an overnight culture grown on the above agar plates without the analogues. The growth was estimated after 48 h incubation at 34° C."}, "B. subtilis 168(pYDHL3)": {"system": "B. subtilis 168(pYDHL3)", "test": "Growth on M9 glucose minimal agar with purine analogues, ydhLBs-amplified strain", "settings": "48 h at 34° C.", "procedure": "as §1"}, "B. subtilis 168(pYDHL4)": {"system": "B. subtilis 168(pYDHL4)", "test": "Growth on M9 glucose minimal agar with purine analogues, ydhLBa-amplified strain", "settings": "48 h at 34° C.", "procedure": "as §1"}, "[1]": {"system": "E. coli strain TG1 (pMW118)", "test": "Growth on M9 glucose minimal agar with purine base analogues, vector control strain", "settings": "44 h at 37° C.", "procedure": "(§2) The pYDHL1 plasmid and the vector were used to transform the E. coli strain TG1 (Amersham Pharmacia Biotech) via standard techniques. Transformants were selected on L-broth agar plates with 100 μg/ml ampicillin. Thus, the E. coli strains TG1 (pYDHL1) and TG1 (pMW118) were obtained. Then the ability of these strains to grow in the presence of purine base analogues was determined on M9 glucose minimal agar plates containing graded concentrations of an inhibitor. The plates were spotted with 10^5 to 10^6 cells from an overnight culture grown in a minimal medium (supplemented with 100 μg/ml of ampicillin). The growth was estimated after 44 h incubation at 37° C."}, "[2]": {"system": "E. coli strain TG1 (pYDHL1)", "test": "Growth on M9 glucose minimal agar with purine base analogues, ydhL-amplified strain", "settings": "44 h at 37° C.", "procedure": "as §2"}, "[3]": {"system": "E. coli deoD gsk3 (pMW118)", "test": "Growth on minimal medium with inosine or guanosine, vector control strain", "procedure": "as §2\n(§3) The pYDHL1 plasmid and the pMW118 vector were also transformed into the E. coli strain TG1 deoD gsk3. The E. coli strain TG1 deoD gsk3 was an especially constructed parental strain which is used for checking the resistance to inosine and guanosine. This strain was obtained by sequential introduction of a deoD mutation, as described in PCT application WO9903988 and gsk3 mutation described by Petersen C. (J. Biol. Chem., 274, 5348-5356, 1999) using phage P1-mediated transduction into the known strain TG1 (VKPM B-5837), which is resistant to inosine and guanosine due to its ability to degrade purine. The strain TG1 deoD gsk3 cannot degrade guanosine and inosine due to a deoD mutation (WO9903988), and it is sensitive to nucleosides due to a gsk3 mutation (Petersen C. J. Biol. Chem., 274, 5348-5356, 1999). Thus, the strains TG1 deoD gsk3 (pYDHL1) and TG1 deoD gsk3 (pMW118) were obtained. Then the ability of these strains to grow in the presence of inosine and guanosine was determined as above."}, "[4]": {"system": "E. coli deoD gsk3 (pYDHL1)", "test": "Growth on minimal medium with inosine or guanosine, ydhL-amplified strain", "settings": "for Resistance conferred by ydhL gene overexpression: summary in words of Table 2, pYDHL1 versus pMW118", "procedure": "as §2, §3"}}}
{"molecule": "Nc1nc2nn[nH]c2c(=O)[nH]1", "note": "[AzaG, 8-azaguanine]", "values": [{"measurement": "Growth on the minimal medium containing AzaG, 2 μg/ml", "setting": "B. subtilis 168; AzaG 2 μg/ml", "value": "−"}, {"measurement": "Growth on the minimal medium containing AzaG, 10 μg/ml", "setting": "B. subtilis 168; AzaG 10 μg/ml", "value": "−"}, {"measurement": "Growth on the minimal medium containing AzaG, 2 μg/ml", "setting": "B. subtilis 168(pYDHL3); AzaG 2 μg/ml", "value": "+"}, {"measurement": "Growth on the minimal medium containing AzaG, 2 μg/ml", "setting": "B. subtilis 168(pYDHL4); AzaG 2 μg/ml", "value": "+"}, {"measurement": "Growth on the minimal medium containing AzaG, 10 μg/ml", "setting": "B. subtilis 168(pYDHL4); AzaG 10 μg/ml", "value": "+"}]}
{"molecule": "Nc1nc(N)c2[nH]cnc2n1", "note": "[DAP, 2,6-diaminopurine]", "values": [{"measurement": "Growth on the minimal medium containing DAP, 400 μg/ml", "setting": "[1]; DAP 400 μg/ml", "value": "−"}, {"measurement": "Growth on the minimal medium containing DAP, 400 μg/ml", "setting": "[2]; DAP 400 μg/ml", "value": "+"}]}
{"molecule": "Cc1ncnc2nc[nH]c12", "note": "[MePur, 6-methylpurine]", "values": [{"measurement": "Growth on the minimal medium containing MePur, 20 μg/ml", "setting": "B. subtilis 168; MePur 20 μg/ml", "value": "−"}, {"measurement": "Growth on the minimal medium containing MePur, 20 μg/ml", "setting": "B. subtilis 168(pYDHL3); MePur 20 μg/ml", "value": "+"}, {"measurement": "Growth on the minimal medium containing MePur, 20 μg/ml", "setting": "B. subtilis 168(pYDHL4); MePur 20 μg/ml", "value": "+"}]}
{"molecule": "Nc1ncnc2nn[nH]c12", "note": "[AzaA, 8-azaadenine]", "values": [{"measurement": "Growth on the minimal medium containing AzaA, 300 μg/ml", "setting": "[1]; AzaA 300 μg/ml", "value": "−"}, {"measurement": "Growth on the minimal medium containing AzaA, 300 μg/ml", "setting": "[2]; AzaA 300 μg/ml", "value": "+"}, {"measurement": "Growth on the minimal medium containing AzaA, 2 mg/ml", "setting": "B. subtilis 168; AzaA 2 mg/ml", "value": "−"}, {"measurement": "Growth on the minimal medium containing AzaA, 2 mg/ml", "setting": "B. subtilis 168(pYDHL4); AzaA 2 mg/ml", "value": "+"}]}
{"molecule": "Sc1ncnc2nc[nH]c12", "note": "[MP, 6-mercaptopurine]", "values": [{"measurement": "Growth on the minimal medium containing MP, 400 μg/ml", "setting": "[1]; MP 400 μg/ml", "value": "−"}, {"measurement": "Growth on the minimal medium containing MP, 400 μg/ml", "setting": "[2]; MP 400 μg/ml", "value": "+"}]}
{"molecule": "Nc1nc2c(ncn2[C@@H]2O[C@H](CO)[C@@H](O)[C@H]2O)c(=O)[nH]1", "note": "[Guanosine]", "values": [{"measurement": "Growth on the minimal medium containing Guanosine 10 mg/l", "setting": "[3]; guanosine 10 mg/l", "value": "−"}, {"measurement": "Growth on the minimal medium containing Guanosine 15 mg/l", "setting": "[3]; guanosine 15 mg/l", "value": "−"}, {"measurement": "Growth on the minimal medium containing Guanosine 10 mg/l", "setting": "[4]; guanosine 10 mg/l, E. coli deoD gsk3 (pYDHL1)", "value": "+"}, {"measurement": "Growth on the minimal medium containing Guanosine 15 mg/l", "setting": "[4]; guanosine 15 mg/l, E. coli deoD gsk3 (pYDHL1)", "value": "−"}, {"measurement": "Resistance conferred by ydhL gene overexpression", "setting": "[4]", "value": "low-level resistance"}]}
{"molecule": "OC[C@H]1O[C@@H](n2cnc3c(O)ncnc32)[C@H](O)[C@@H]1O", "note": "[Inosine]", "values": [{"measurement": "Growth on the minimal medium containing Inosine 300 mg/l", "setting": "[3]; inosine 300 mg/l", "value": "−"}, {"measurement": "Growth on the minimal medium containing Inosine 1000 mg/l", "setting": "[3]; inosine 1000 mg/l", "value": "−"}, {"measurement": "Growth on the minimal medium containing Inosine 300 mg/l", "setting": "[4]; inosine 300 mg/l, E. coli deoD gsk3 (pYDHL1)", "value": "+"}, {"measurement": "Growth on the minimal medium containing Inosine 1000 mg/l", "setting": "[4]; inosine 1000 mg/l, E. coli deoD gsk3 (pYDHL1)", "value": "+"}, {"measurement": "Resistance conferred by ydhL gene overexpression", "setting": "[4]", "value": "high-level resistance"}]}
